Reference: the supplement of paper PMC10307832

What was measured:
Experiment in all cases: relative viability (nuclei count vs DMSO), 5 days (fraction); higher = more cells survive
[1] = compound: CCN1CCC(CC1)N2C=C(N=N2)CNC3=CC4=C(C(=CN=C4C(=C3)Cl)C#N)NC5=CC(=C(C=C5)F)Cl [KIN001-266]
Procedure, shortened: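 MetaXpress counted nuclei in 4× images of lung cancer cell lines that had been fixed, permeabilised and Hoechst-stained in one step. Before that, cells in 1536-well plates were kept overnight at 37 °C, pinned with five √10-spaced library-drug doses on vehicle-anchored plates, and cultured 5 days without medium change. Viability takes treated-well nuclei over vehicle-well nuclei and uses the median across plates. Plates were accepted only at control CV below 25% and at least one doubling.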

[2] = compound: CCN1CCC(CC1)N2C=C(N=N2)CNC3=CC4=C(C(=CN=C4C(=C3)Cl)C#N)NC5=CC(=C(C=C5)F)Cl [KIN001-266] + CC(=O)Nc1cccc(-n2c(=O)n(C3CC3)c(=O)c3c(Nc4ccc(I)cc4F)n(C)c(=O)c(C)c32)c1 [Trametinib] (partner 0.02 µM)
Procedure, shortened: (§1)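 For relative viability, nuclei counts in treated wells were divided by those in vehicle wells. Lung cancer cell lines had been pin-tool dosed in 1536-well plates the day after seeding and cultured for 5 days, then fixed and stained in one step (final 0.05% Triton X-100, 1% formaldehyde, 1 ug/ml Hoechst) and imaged at 4×. Doses were one drug alone or a fixed anchor-drug dose plus five library-drug doses (not always all listed) in √10 steps, and values are duplicate-plate medians.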

[3] = compound: CCN1CCC(CC1)N2C=C(N=N2)CNC3=CC4=C(C(=CN=C4C(=C3)Cl)C#N)NC5=CC(=C(C=C5)F)Cl [KIN001-266] + COc1cccc2cc(-c3nc([C@H]4CC[C@H](C(=O)O)CC4)n4ncnc(N)c34)[nH]c12 [OSI-027] (partner 0.5 µM)
Procedure, shortened: as §1

[4] = compound: CCN1CCC(CC1)N2C=C(N=N2)CNC3=CC4=C(C(=CN=C4C(=C3)Cl)C#N)NC5=CC(=C(C=C5)F)Cl [KIN001-266] + N=C(N)NC(=N)NCCc1ccccc1 [Phenformin] (partner 250 µM)
Procedure, shortened: as §1

Work on NCI-H358 yielded a relative viability ([1]; 0.08 µM) of 0.893, a relative viability ([1]; 0.253 µM) of 0.98 and a relative viability ([1]; 0.8 µM) of 0.917. The relative viability ([1]; 2.53 µM) was 0.828, the relative viability ([1]; 8 µM) was 0.45 and the relative viability ([2]; first compound 0.08 µM) was 0.174. It also gave a relative viability ([2]; first compound 0.253 µM) of 0.17, a relative viability ([2]; first compound 0.8 µM) of 0.138 and a relative viability ([2]; first compound 2.53 µM) of 0.115. For the same cell line, the relative viability ([2]; first compound 8 µM) was 0.117, the relative viability ([3]; first compound 0.08 µM) was 0.79 and the relative viability ([3]; first compound 0.253 µM) was 0.72. It also gave a relative viability ([3]; first compound 0.8 µM) of 0.997, a relative viability ([3]; first compound 2.53 µM) of 0.903 and a relative viability ([3]; first compound 8 µM) of 0.596. The relative viability ([4]; first compound 0.08 µM) was 0.361, the relative viability ([4]; first compound 0.253 µM) was 0.367 and the relative viability ([4]; first compound 0.8 µM) was 0.343. For the same cell line, the relative viability ([4]; first compound 2.53 µM) was 0.277 and the relative viability ([4]; first compound 8 µM) was 0.251.
NCI-H441 showed a relative viability ([1]; 0.08 µM) of 1.11, a relative viability ([1]; 0.253 µM) of 1.07 and a relative viability ([1]; 0.8 µM) of 1.1. The relative viability ([1]; 2.53 µM) was 0.939, the relative viability ([1]; 8 µM) was 0.789 and the relative viability ([2]; first compound 0.08 µM) was 0.455. For the same cell line, the relative viability ([2]; first compound 0.253 µM) was 0.525, the relative viability ([2]; first compound 0.8 µM) was 0.489 and the relative viability ([2]; first compound 2.53 µM) was 0.471. The relative viability ([2]; first compound 8 µM) was 0.399, the relative viability ([3]; first compound 0.08 µM) was 0.829 and the relative viability ([3]; first compound 0.253 µM) was 0.695. It also gave a relative viability ([3]; first compound 0.8 µM) of 0.585, a relative viability ([3]; first compound 2.53 µM) of 0.563 and a relative viability ([3]; first compound 8 µM) of 0.479. The relative viability ([4]; first compound 0.08 µM) was 0.937, the relative viability ([4]; first compound 0.253 µM) was 0.837 and the relative viability ([4]; first compound 0.8 µM) was 0.806. The relative viability ([4]; first compound 2.53 µM) was 0.805 and the relative viability ([4]; first compound 8 µM) was 0.641.
NCI-H460 showed a relative viability ([1]; 0.08 µM) of 1.01, a relative viability ([1]; 0.253 µM) of 1.01 and a relative viability ([1]; 0.8 µM) of 0.967. The relative viability ([1]; 2.53 µM) was 0.951, the relative viability ([1]; 8 µM) was 1.02 and the relative viability ([2]; first compound 0.08 µM) was 0.204. The relative viability ([2]; first compound 0.253 µM) was 0.225, the relative viability ([2]; first compound 0.8 µM) was 0.121 and the relative viability ([2]; first compound 2.53 µM) was 0.135. It also gave a relative viability ([2]; first compound 8 µM) of 0.108, a relative viability ([3]; first compound 0.08 µM) of 0.623 and a relative viability ([3]; first compound 0.253 µM) of 0.667. It also gave a relative viability ([3]; first compound 0.8 µM) of 0.781, a relative viability ([3]; first compound 2.53 µM) of 0.605 and a relative viability ([3]; first compound 8 µM) of 0.574. For the same cell line, the relative viability ([4]; first compound 0.08 µM) was 0.499, the relative viability ([4]; first compound 0.253 µM) was 0.506 and the relative viability ([4]; first compound 0.8 µM) was 0.528. The relative viability ([4]; first compound 2.53 µM) was 0.475 and the relative viability ([4]; first compound 8 µM) was 0.433.
In the case of NCI-H520, the relative viability ([1]; 0.08 µM) is reported as 1.01, the relative viability ([1]; 0.253 µM) is reported as 1.05 and the relative viability ([1]; 0.8 µM) is reported as 1.08. The relative viability ([1]; 2.53 µM) was 0.943, the relative viability ([1]; 8 µM) was 1.01 and the relative viability ([2]; first compound 0.08 µM) was 0.727. It also gave a relative viability ([2]; first compound 0.253 µM) of 0.628, a relative viability ([2]; first compound 0.8 µM) of 0.561 and a relative viability ([2]; first compound 2.53 µM) of 0.624. It also gave a relative viability ([2]; first compound 8 µM) of 0.645, a relative viability ([3]; first compound 0.08 µM) of 0.232 and a relative viability ([3]; first compound 0.253 µM) of 0.351. The relative viability ([3]; first compound 0.8 µM) was 0.278, the relative viability ([3]; first compound 2.53 µM) was 0.235 and the relative viability ([3]; first compound 8 µM) was 0.297. For the same cell line, the relative viability ([4]; first compound 0.08 µM) was 0.793, the relative viability ([4]; first compound 0.253 µM) was 0.633 and the relative viability ([4]; first compound 0.8 µM) was 0.706. For the same cell line, the relative viability ([4]; first compound 2.53 µM) was 0.376 and the relative viability ([4]; first compound 8 µM) was 0.58.
For NCI-H522, the relative viability ([1]; 0.08 µM) was 1.13, the relative viability ([1]; 0.253 µM) was 0.937 and the relative viability ([1]; 0.8 µM) was 1.05. For the same cell line, the relative viability ([1]; 2.53 µM) was 0.925, the relative viability ([1]; 8 µM) was 0.914 and the relative viability ([2]; first compound 0.08 µM) was 0.78. It also gave a relative viability ([2]; first compound 0.253 µM) of 0.907, a relative viability ([2]; first compound 0.8 µM) of 0.797 and a relative viability ([2]; first compound 2.53 µM) of 0.638. It also gave a relative viability ([2]; first compound 8 µM) of 0.706, a relative viability ([3]; first compound 0.08 µM) of 0.879 and a relative viability ([3]; first compound 0.253 µM) of 0.74. The relative viability ([3]; first compound 0.8 µM) was 0.677, the relative viability ([3]; first compound 2.53 µM) was 0.659 and the relative viability ([3]; first compound 8 µM) was 0.659. The relative viability ([4]; first compound 0.08 µM) was 0.656, the relative viability ([4]; first compound 0.253 µM) was 0.641 and the relative viability ([4]; first compound 0.8 µM) was 0.653. The relative viability ([4]; first compound 2.53 µM) was 0.629 and the relative viability ([4]; first compound 8 µM) was 0.591.
Work on NCI-H596 yielded a relative viability ([1]; 0.08 µM) of 1.09, a relative viability ([1]; 0.253 µM) of 0.938 and a relative viability ([1]; 0.8 µM) of 0.878. For the same cell line, the relative viability ([1]; 2.53 µM) was 0.987, the relative viability ([1]; 8 µM) was 0.866 and the relative viability ([2]; first compound 0.08 µM) was 0.742. The relative viability ([2]; first compound 0.253 µM) was 0.698, the relative viability ([2]; first compound 0.8 µM) was 0.851 and the relative viability ([2]; first compound 2.53 µM) was 0.778. For the same cell line, the relative viability ([2]; first compound 8 µM) was 0.673, the relative viability ([3]; first compound 0.08 µM) was 0.858 and the relative viability ([3]; first compound 0.253 µM) was 0.635. For the same cell line, the relative viability ([3]; first compound 0.8 µM) was 0.616, the relative viability ([3]; first compound 2.53 µM) was 0.638 and the relative viability ([3]; first compound 8 µM) was 0.529. It also gave a relative viability ([4]; first compound 0.08 µM) of 0.718, a relative viability ([4]; first compound 0.253 µM) of 0.805 and a relative viability ([4]; first compound 0.8 µM) of 0.686. The relative viability ([4]; first compound 2.53 µM) was 0.721 and the relative viability ([4]; first compound 8 µM) was 0.677.
NCI-H647 was tested, and the relative viability ([1]; 0.08 µM) was 1.03, the relative viability ([1]; 0.253 µM) was 1.01 and the relative viability ([1]; 0.8 µM) was 1.11. For the same cell line, the relative viability ([1]; 2.53 µM) was 0.94, the relative viability ([1]; 8 µM) was 0.942 and the relative viability ([2]; first compound 0.08 µM) was 0.452. The relative viability ([2]; first compound 0.253 µM) was 0.443, the relative viability ([2]; first compound 0.8 µM) was 0.474 and the relative viability ([2]; first compound 2.53 µM) was 0.419. It also gave a relative viability ([2]; first compound 8 µM) of 0.375, a relative viability ([3]; first compound 0.08 µM) of 0.669 and a relative viability ([3]; first compound 0.253 µM) of 0.691. The relative viability ([3]; first compound 0.8 µM) was 0.577, the relative viability ([3]; first compound 2.53 µM) was 0.857 and the relative viability ([3]; first compound 8 µM) was 0.544. The relative viability ([4]; first compound 0.08 µM) was 0.65, the relative viability ([4]; first compound 0.253 µM) was 0.552 and the relative viability ([4]; first compound 0.8 µM) was 0.557. The relative viability ([4]; first compound 2.53 µM) was 0.468 and the relative viability ([4]; first compound 8 µM) was 0.426.
